Experimental data published in paper PMC2719696, “Kinetics and Cellular Site of Glycolipid Loading Control the Outcome of Natural Killer T Cell Activation” (Immunity, 2009).

System: splenocytes
Assay: MβCD treatment of glycolipid-pulsed DCs, stimulation of autologous splenocytes in vitro
Format: cell-based, C57BL/6 mice
Details: DCs pulsed 18 hr, 10 mM MβCD 15 min, 24 hr culture
Description: Figure 7 Functional Consequences of Membrane Lipid Raft Association of Glycolipid-Loaded CD1d Molecules (A) C57BL/6 BMDCs were pulsed for 18 hr with the indicated glycolipids, washed, and incubated for 15 min in medium alone (hatched bars) or medium containing 10 mM MβCD (solid bars). Cells were then fixed (1% paraformaldehyde) and used for stimulating autologous splenocytes for 24 hr, after which supernatant concentrations of IFN-γ and IL-4 were measured. Dotted lines indicate the background levels of cytokines in cultures with BMDC pulsed with vehicle only. Means and standard deviations for triplicate cultures are shown, and results are representative of three experiments. ^∗∗p < 0.01 (ANOVA, Bonferroni post-test). (B) Effect of MβCD on in vivo presentation of αGalCer analogs. Splenic DCs were pulsed ex vivo with the indicated glycolipids for 18 hr and then incubated for 15 min in medium without (−, hatched bars) or with 10 mM MβCD (+, solid bars). After extensive washing, the cells were injected i.p. into naive C57BL/6 mice (10^6 cells/mouse). Serum was assayed for IL-4 at 2 hr and for IFN-γ at 24 hr postinjection. Data shown are means and standard deviations for pooled data from two experiments that had three mice per group. ^∗∗p < 0.01 (ANOVA, Bonferroni post-test); NS, not significant (p > 0.05).
For in vitro stimulation, murine iNKT hybridomas at 5 × 10^4 cells/well in 96-well plates were stimulated with an equal number of either JAWS II cells or transfected A20 cells in complete medium with glycolipids for 12 hr at 37°C, and levels of murine IL-2 secretion were determined. For some experiments, APCs were preincubated with glycolipids for 12 hr or fixed with paraformaldehyde (1% for 2 min at RT) prior to the addition of iNKT cell hybridomas. For in vitro stimulation of murine splenic iNKT cells, splenocytes from BALB/c or C57BL/6 mice were plated at 5 × 10^5 cells per well in complete medium in 96-well plates and stimulated with glycolipids for 48 hr at 37°C. Subsequently the levels of IL-4, IL-13, and IFN-γ in culture supernatants were quantified by capture ELISA. For assays with methyl-β-cyclodextrin (MβCD) treatment of APCs, we prepared splenic DCs with a CD11c^+ cell isolation kit from Miltenyi Biotech from mice that had been injected s.c. 14 days previously with 10^5 Flt3-ligand-secreting B16 melanoma cells to increase the yield ([Mach et al., 2000]). Purified CD11c^+ cells were cultured in complete medium for 18 hr with glycolipids (100 nM) as indicated, washed, and incubated at 37°C for 15 min in medium with or without 10 mM MβCD (Sigma-Aldrich) and subsequently fixed (1% paraformaldehyde) and cultured in 96-well plates at 2 × 10^5 cells/well with autologous splenocytes (4 × 10^5 cells per well). […]

SMILES: CCCCCC=CCC=CCCCCCCCCCC(=O)NC(COC1OC(CO)C(O)C(O)C1O)C(O)C(O)CCCCCCCCCCCCCC (stereo not shown) [αGalCer-C20:2]
- effect of MβCD treatment of pulsed DCs on stimulation of IFN-γ production by splenocytes: unaffected by MβCD

SMILES: CCCCCCCCCCCCCCC(O)C(O)C(COC1OC(CO)C(O)C(O)C1O)NC(=O)CCCCCCCCC (stereo not shown) [αGalCer-C10:0]
- effect of MβCD treatment of pulsed DCs on stimulation of IFN-γ production by splenocytes: unaffected by MβCD

SMILES: CCCCCCCCCCCCCCCCCCCCCCCCCC(=O)NC(COC1OC(CO)C(O)C(O)C1O)C(O)C(O)CCCCCCCCCCCCCC (stereo not shown) [αGalCer-C26:0, reference compound]
- effect of MβCD treatment of pulsed DCs on stimulation of IFN-γ production by splenocytes: markedly reduced
- effect of MβCD treatment of pulsed DCs on stimulation of IL-4: no effect
